Results: ChEMBL document CHEMBL1201862, “PubChem BioAssay data set” (2004)
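Interpolation was linear, between the two tested concentrations surrounding the appropriate level; five concentrations were tested over 48 hours in 96-well plates. The concentration for 50% growth inhibition is given as GI50.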 Activity calls are given as the source filed them. No stated cut-off is given here; in the data, active = GI50 up to about 1.1 µM and inactive = higher.

What was measured:
Experiment in all cases: DTP human tumour cell line panel, 48 h
[1] = tested on: 786-0
[2] = tested on: A498
[3] = tested on: A549
[4] = tested on: ACHN
[5] = tested on: BT-549
[6] = tested on: CAKI-1
[7] = tested on: CCRF-CEM
[8] = tested on: COLO 205
[9] = tested on: DU-145
[10] = tested on: EKVX
[11] = tested on: HCC 2998
[12] = tested on: HCT-116
[13] = tested on: HCT-15
[14] = tested on: HL-60
[15] = tested on: HOP-62
[16] = tested on: HOP-92
[17] = tested on: HT-29
[18] = tested on: Hs-578T
[19] = tested on: IGROV-1
[20] = tested on: K562
[21] = tested on: KM12
[22] = tested on: LOX IMVI
[23] = tested on: M14
[24] = tested on: MCF7
[25] = tested on: MDA-MB-231
[26] = tested on: MDA-MB-435
[27] = tested on: MDA-N
[28] = tested on: MOLT-4
[29] = tested on: Malme-3M
[30] = tested on: NCI-H226
[31] = tested on: NCI-H23
[32] = tested on: NCI-H460
[33] = tested on: NCI-H522
[34] = tested on: NCI/ADR-RES
[35] = tested on: OVCAR-3
[36] = tested on: OVCAR-4
[37] = tested on: OVCAR-5
[38] = tested on: OVCAR-8
[39] = tested on: PC-3
[40] = tested on: RXF 393
[41] = tested on: SF-268
[42] = tested on: SF-295
[43] = tested on: SF-539
[44] = tested on: SK-MEL-28
[45] = tested on: SK-MEL-2
[46] = tested on: SK-MEL-5
[47] = tested on: SK-OV-3
[48] = tested on: SN12C
[49] = tested on: SNB-19
[50] = tested on: SNB-75
[51] = tested on: SR
[52] = tested on: SW-620
[53] = tested on: T47D
[54] = tested on: TK-10
[55] = tested on: U-251
[56] = tested on: UACC-257
[57] = tested on: UACC-62
[58] = tested on: UO-31

C=CCC1(O)C(=O)OC2C(O)COC21O (stereo not drawn)
GI50 [1]: > 100 µM (inactive)
GI50 [2]: > 100 µM (inactive)
GI50 [3]: > 100 µM (inactive)
GI50 [4]: > 100 µM (inactive)
GI50 [5]: > 100 µM (inactive)
GI50 [6]: > 100 µM (inactive)
GI50 [7]: > 100 µM (inactive)
GI50 [8]: > 100 µM (inactive)
GI50 [9]: > 100 µM (inactive)
GI50 [10]: > 100 µM (inactive)
GI50 [11]: > 100 µM (inactive)
GI50 [12]: > 100 µM (inactive)
GI50 [13]: > 100 µM
GI50 [14]: > 100 µM (inactive)
GI50 [15]: > 100 µM (inactive)
GI50 [16]: > 100 µM (inactive)
GI50 [17]: > 100 µM (inactive)
GI50 [18]: > 100 µM (inactive)
GI50 [19]: > 100 µM (inactive)
GI50 [20]: > 100 µM (inactive)
GI50 [21]: > 100 µM (inactive)
GI50 [22]: > 100 µM (inactive)
GI50 [23]: > 100 µM (inactive)
GI50 [24]: > 100 µM (inactive)
GI50 [25]: > 100 µM (inactive)
GI50 [26]: > 100 µM (inactive)
GI50 [27]: > 100 µM (inactive)
GI50 [28]: > 100 µM (inactive)
GI50 [29]: > 100 µM (inactive)
GI50 [30]: > 100 µM (inactive)
GI50 [31]: > 100 µM (inactive)
GI50 [32]: > 100 µM (inactive)
GI50 [33]: > 100 µM (inactive)
GI50 [34]: > 100 µM (inactive)
GI50 [35]: > 100 µM (inactive)
GI50 [36]: > 100 µM (inactive)
GI50 [37]: > 100 µM (inactive)
GI50 [38]: > 100 µM (inactive)
GI50 [39]: > 100 µM (inactive)
GI50 [40]: > 100 µM (inactive)
GI50 [41]: > 100 µM (inactive)
GI50 [42]: > 100 µM (inactive)
GI50 [43]: > 100 µM (inactive)
GI50 [44]: 23 µM (inactive)
GI50 [45]: > 100 µM (inactive)
GI50 [46]: > 100 µM (inactive)
GI50 [47]: > 100 µM (inactive)
GI50 [48]: > 100 µM (inactive)
GI50 [49]: > 100 µM (inactive)
GI50 [50]: 35.4 µM (inactive)
GI50 [51]: > 100 µM (inactive)
GI50 [52]: > 100 µM (inactive)
GI50 [53]: > 100 µM (inactive)
GI50 [54]: > 100 µM (inactive)
GI50 [55]: > 100 µM (inactive)
GI50 [56]: > 100 µM (inactive)
GI50 [57]: > 100 µM (inactive)
GI50 [58]: > 100 µM (inactive)
